In patent US8039532B2, “Heterocyclic compound, ultraviolet absorbent and composition containing the same” (Fujifilm Corporation, priority 2007, dated 2011):

Legend:
Assay type in all cases: physicochemical
[1] = UV spectrum of sample solutions in ethyl acetate (Example 38); settings: ethyl acetate solution, 1 cm quartz cell
Method: The absorption maximum wavelength and the half width specified in the present invention can be determined easily by a skilled person in the art. The measuring methods are described, for example, in Chemical Society of Japan Ed., “Experimental Chemistry Lecture, Chapter 7, Spectroscopy II”, 4th Ed., (Maruzen, 1992), p. 180 to 186. Specifically, they are determined by dissolving a sample in a suitable solvent and measuring the spectrum in a spectrophotometer by using two quartz or glass cells for the sample and control. For example, the solvent for use is required to be capable of dissolving the sample, have no absorption in the measurement wavelength range, have smaller interaction with the solute molecule, and have relatively low volatility. Any solvent may be used, as long as it satisfies the conditions above. In the present invention, the measurement is made by using ethyl acetate (EtOAc) as the solvent.
The absorption maximum wavelength and the half width of the dyes in the present invention are determined by preparing a solution in ethyl acetate as the solvent at a concentration of approximately 5×10^−5 mol·dm^−3 and by measurement while using a quartz cell having an optical path length of 10 mm.
The spectral half width is described, for example, in Chemical Society of Japan Ed., “Experimental Chemistry Lecture, Chapter 3 Basic Operation III”, 4th Ed., (Maruzen, 1991), p. 154. The half width is described in the literature above by using wave number as abscissa, but the half width is plotted against wavelength in the present invention and thus, the unit of the half value width is nm. Specifically, it is defined as the width of the absorption band at an absorbance of ½ of that at the absorption maximum wavelength and used as an indicator of the absorption spectral shape.
One mg of the Exemplified Compound (1) was dissolved in 100 ml of ethyl acetate, to give a sample solution. Similarly, sample solutions of Exemplified Compounds (2), (11), (12), (24), (81), (82), (87) and (88), respectively, were prepared. In addition, two mg of the comparative compound 1 was dissolved in 100 ml of ethyl acetate, to give a sample solution. Similarly, sample solutions of the comparative compounds 2 (the exemplified compound VIII described in JP-B-49-11155), 11 and 12, respectively, were also prepared. The UV spectrum of each sample solution was determined in a 1 cm quartz cell by using Spectrophotometer UV-3600 (product name) manufactured by Shimadzu Corporation. Based on the thus-obtained spectrum chart, were calculated the maximum absorption wavelength, the molar extinction coefficient (ε) at the maximum absorption wavelength and the half width (a width of absorption band corresponding to a half extinction at the maximum absorption wavelength).

[2] = Light fastness of ethyl acetate solutions under xenon lamp irradiation (Example 39); settings: ethyl acetate solution, xenon lamp with UV filter removed, 170,000 lux, one week; transmittance at maximum absorption wavelength
Method: Was dissolved 5 mg of the exemplified compound (1) in 100 mL of ethyl acetate and then the resulting solution was diluted with ethyl acetate so that absorbance became the range of from 0.95 to 1.05. Similarly, sample solutions of Exemplified Compounds (2), (11), (12), (24), (81) and (82) and comparative compounds A and B, respectively, were prepared. The absorbance of each sample solution was determined in a 1 cm quartz cell by using Spectrophotometer UV-3600 (product name) manufactured by Shimadzu Corporation. The cell containing the sample solution was photoirradiated by a xenon lamp with its UV filter removed at an illuminance of 170,000 lux, and the amount of each ultraviolet absorbent remaining after irradiation for one week was determined. The residual amount was calculated according to the following Formula: Residual amount (%)=100×(100−Transmittance after irradiation)/(100−Transmittance before irradiation)
The transmittance is a value determined at the maximum absorption wavelength of each compound.

[3] = Degree of coloring of UV agent-containing polyethylene terephthalate films (Example 43); design: key to Colored (visual): ∘: Not colored; Δ: Slightly colored; x: Distinctly colored; settings: PET film 50 μm; for absorbance at 420 nm / absorbance at 440 nm / absorbance at 460 nm: quantity giving 1% at 400 nm; for Colored (visual): visual examination; for absorbance at 400 nm: quantity adjusted so that value at 400 nm became 1%
Method: To 15 g of polyethylene terephthalate, the exemplified compounds (81) and (82) were added, respectively, in a quantity such that absorbance at 400 nm became 1% at the time of forming a film with a thickness of 50 μm. After fusion mixing at 265° C., UV agent-containing polymer films (401) and (402) were prepared by cooling and stretching. Further, UV agent-containing polymer films (403) and (404) were prepared by mixing and thin film-making in the same manner as the above films, except that a comparative compound Za and the abovementioned comparative compound 12 were used in place of the exemplified compounds.
A degree of coloring in each of the prepared samples was evaluated by measuring absorbance of the sample at 420 nm 440 nm and 460 nm, and also by examining them visually.

SMILES	Half width (nm) [1]	ε, molar extinction coefficient at the maximum absorption wavelength [1]	λmax (nm), maximum absorption wavelength [1]	Residual amount (%) [2]	coloring of the film (in words) [3]	absorbance at 420 nm [3]	absorbance at 440 nm [3]	absorbance at 460 nm [3]	Colored (visual) [3]	absorbance at 400 nm [3]
CCCCCCCCCCCCOc1ccc(OCCCCCCCCCCCC)c2c1SC(=C(C#N)C#N)S2 [Comparative compound 2]	46 nm	23000	363 nm							
CCCCC(CC)C(=O)Oc1ccc(OC(=O)C(CC)CCCC)c2c1SC(=C(C#N)C#N)S2 (centres unmarked) [Comparative compound 1]	45 nm	24000	369 nm							
COc1ccc(C(=O)CC(=O)c2ccc(C(C)(C)C)cc2)cc1 [Comparative compound B]				38%						
COc1ccc(C(=O)c2ccc(OC)cc2O)c(O)c1 [Comparative compound A]				76%						
CC(C)(C)CC(C)(C)c1cc(Cc2cc(C(C)(C)CC(C)(C)C)cc(-n3nc4ccccc4n3)c2O)c(O)c(-n2nc3ccccc3n2)c1 [Za]					more colored yellow	45%	65%	85%	x	1%
CCCCC(CC)COc1ccc(OCC(CC)CCCC)c2c1SC(=C(C#N)C(=O)OCC)S2 (centres unmarked) [Comparative compound 12]	39 nm	28000	360 nm		coloring was also observed	65%	72%	78%	Δ to x	1%
